Marks after values point to notes of the source that are not given here.
Columns and labels:
[1] = tested on: healthy participants; assay: Safety and tolerability (treatment-emergent adverse events), studies VNRX-7145-101 and VNRX-7145-102; assay type: in vivo, human
Description: Safety was assessed via ongoing monitoring of adverse events, symptom-directed physical examinations, and changes in clinical laboratory measures, vital signs, and ECGs.

[2] = Plasma pharmacokinetics after single ascending doses of LED-E (VNRX-7145-101 Part 1); assay type: in vivo; conditions: human, oral; for Vd/F: read-out: Vz/F; for Tmax: median (range)
Description: (§1) Quantitation used separate weighted 1 /x^2 linear least-squares regression analyses generated from calibration standards. Exploratory screening for metabolites was performed for some samples. […] Single-dose plasma pharmacokinetic parameters were determined in Part 1, and both single-dose (Day 1) and multiple-dose (Day 12) parameters were determined in Part 2. […] Dose proportionality was analyzed using a power model in which pharmacokinetic exposure parameters and dose were converted to the natural log and linear regression results were reported, with the slope as the power estimate ([15]). […] In Part 2, achievement of steady-state concentrations was assessed using Tukey’s multiple comparison test for pre-dose and all dosing days (Days 2 to 10) for each dose level separately. In both studies, plasma pharmacokinetic parameters were calculated using WinNonlin (Certara; Radnor, PA), and urine pharmacokinetic parameters were calculated using SAS (SAS Institute; Cary, NC).

[3] = Plasma pharmacokinetics on Day 10 after multiple doses of LED-E q8h (VNRX-7145-101 Part 2, VNRX-7145-102 Part 2); assay type: in vivo, human; conditions: human, oral, plasma; for AUC / Cmax / Vd/F / half-life: geometric mean (CV %); for Vd/F: read-out: Vz/F; for Tmax: median (range); for half-life: read-out: t1/2 (converted)
Description: as §1, with “Single-dose plasma pharmacokinetic parameters were determined in Part 1, and both single-dose (Day 1) and multiple-dose (Day 12) parameters were determined in Part 2.” left out, “separately. […] Plasma pharmacokinetic parameters were calculated using noncompartmental analysis of the plasma and urine concentration-time data. […] AUCinf and Cmax were natural log-transformed before analysis, using a linear mixed effects model. […]” for “separately.”

[4] = Urinary pharmacokinetics after single doses of LED-E; assay type: in vivo, human; conditions: urine, geometric mean (geometric CV %); for CL renal: human, oral
Description: Plasma and urine pharmacokinetics samples were assayed for LED-E, LED, and CTB, as appropriate using validated bioanalytical methods. […] Quantitation used separate weighted 1 /x^2 linear least-squares regression analyses generated from calibration standards. Exploratory screening for metabolites was performed for some samples. In both studies, plasma pharmacokinetic parameters were calculated using WinNonlin (Certara; Radnor, PA), and urine pharmacokinetic parameters were calculated using SAS (SAS Institute; Cary, NC).

[5] = Urinary pharmacokinetics on Day 10 after multiple doses of LED-E q8h; assay type: in vivo, human; conditions: urine, geometric mean (geometric CV %); for CL renal: human, oral
Description: Quantitation used separate weighted 1 /x^2 linear least-squares regression analyses generated from calibration standards. Exploratory screening for metabolites was performed for some samples. […] Plasma pharmacokinetic parameters were calculated using noncompartmental analysis of the plasma and urine concentration-time data. […] AUCinf and Cmax were natural log-transformed before analysis, using a linear mixed effects model. […] In both studies, plasma pharmacokinetic parameters were calculated using WinNonlin (Certara; Radnor, PA), and urine pharmacokinetic parameters were calculated using SAS (SAS Institute; Cary, NC).

[6] = Urinary recovery on Day 10 after multiple doses of CTB + LED-E q8h (VNRX-7145-102 Part 3); conditions: for Ae0–8 / Fe0–8 / CL renal: urine, geometric mean (geometric CV %); for CL renal: human, oral, CLr
[7] = Plasma pharmacokinetics on Day 10 after multiple doses of CTB + LED-E q8h (VNRX-7145-102 Part 3); conditions: for AUC: AUCtau; for AUC / Cmax / half-life: geometric mean (CV %)
[8] = 1000 mg, single dose LED-E 1,000 mg, geometric mean (CV %)
[9] = single dose LED-E 100 mg, geometric mean (CV %)
[10] = single dose LED-E 200 mg, geometric mean (CV %)
[11] = single dose LED-E 300 mg, geometric mean (CV %)
[12] = single dose LED-E 500 mg, geometric mean (CV %)
[13] = single dose LED-E 800 mg, geometric mean (CV %)
[14] = multiple doses LED-E 500 mg q8h, after last dose (Day 10)
[15] = Day 10, CTB 400 mg + LED-E 300 mg q8h
[16] = Day 10, CTB 400 mg + LED-E 500 mg q8h
[17] = human, oral, Day 10, CTB 400 mg + LED-E 300 mg q8h
[18] = human, oral, Day 10, CTB 400 mg + LED-E 500 mg q8h

SMILES: CCC(=O)N[C@H]1Cc2cccc(C(=O)OCOC(=O)C(CC)CC)c2OB1O [Ledaborbactam etzadroxil]
- Participants with fatigue (TEAE) ([1]; LED-E-dosed participants): 9.2%
- Participants with headache (TEAE) ([1]; LED-E-dosed participants): 20.2%
- Tolerability ([1]; all dose levels, alone or in combination with CTB): well tolerated
- Participants with gastrointestinal TEAEs ([1]; n = 109, pooled studies, all mild): 27.5%
- Serious or severe TEAEs ([1]; single or multiple doses, alone or with CTB): no serious or severe TEAEs
- AUC(0-inf) [2, 8]: 2300 ng·h/mL
- Cmax [2, 8]: 1840 ng/mL
- Vd/F [2, 8]: 2880 L
- half-life ([2]; 1000 mg, single dose LED-E 1,000 mg, geometric mean (CV %), read-out: t1/2 (converted)): 4.59 h
- half-life ([2]; across single doses LED-E 100 to 1,000 mg, read-out: Geometric mean t1/2): 2.8 to 4.7 h
- AUC(0-inf) [2, 9]: 177 ng·h/mL
- Cmax [2, 9]: 167 ng/mL
- Vd/F [2, 9]: 2290 L
- half-life ([2]; single dose LED-E 100 mg, geometric mean (CV %), read-out: t1/2 (converted)): 2.81 h
- Tmax ([2]; single dose LED-E 100 mg): 0.5 h
- AUC(0-inf) [2, 10]: 249 ng·h/mL
- Cmax [2, 10]: 167 ng/mL
- half-life ([2]; single dose LED-E 200 mg, geometric mean (CV %), read-out: t1/2 (converted)): 3.34 h
- Tmax ([2]; single dose LED-E 200 mg): 0.5 h
- AUC(0-inf) [2, 11]: 439 ng·h/mL
- Cmax [2, 11]: 347 ng/mL
- half-life ([2]; single dose LED-E 300 mg, geometric mean (CV %), read-out: t1/2 (converted)): 3.63 h
- Tmax ([2]; single dose LED-E 300 mg): 0.5 h
- AUC(0-inf) [2, 12]: 1290 ng·h/mL
- Cmax [2, 12]: 917 ng/mL
- Vd/F [2, 12]: 2640 L
- half-life ([2]; single dose LED-E 500 mg, geometric mean (CV %), read-out: t1/2 (converted)): 4.7 h
- AUC(0-inf) [2, 13]: 1720 ng·h/mL
- Cmax [2, 13]: 1160 ng/mL
- Vd/F [2, 13]: 2260 L
- half-life ([2]; single dose LED-E 800 mg, geometric mean (CV %), read-out: t1/2 (converted)): 3.37 h
- Tmax ([2]; single dose LED-E 800 mg): 0.5 h
- AUC ([3]; Day 10, LED-E 75 mg q8h, 0 to 8 h post-dose): 85.5 ng·h/mL
- Cmax ([3]; Day 10, LED-E 75 mg q8h): 122 ng/mL
- Vd/F ([3]; Day 10, LED-E 75 mg q8h): 3880 L
- Tmax ([3]; Day 10, LED-E 75 mg q8h): 0.5 h
- AUC ([3]; Day 10, LED-E 150 mg q8h): 309 ng·h/mL
- Cmax ([3]; Day 10, LED-E 150 mg q8h): 447 ng/mL
- Vd/F ([3]; Day 10, LED-E 150 mg q8h): 3350 L
- Tmax ([3]; Day 10, LED-E 150 mg q8h): 0.5 h
- AUC ([3]; Day 10, LED-E 300 mg q8h): 480 ng·h/mL
- Cmax ([3]; Day 10, LED-E 300 mg q8h): 629 ng/mL
- Vd/F ([3]; Day 10, LED-E 300 mg q8h): 6080 L
- Tmax ([3]; Day 10, LED-E 300 mg q8h): 0.5 h
- AUC ([3]; Day 10, LED-E 500 mg q8h): 1050 ng·h/mL
- Cmax ([3]; Day 10, LED-E 500 mg q8h): 919 ng/mL
- Vd/F ([3]; Day 10, LED-E 500 mg q8h): 6290 L
- half-life ([3]; 75 mg, Day 10, LED-E 75 mg q8h): 3.07 h
- half-life ([3]; 150 mg, Day 10, LED-E 150 mg q8h): 4.78 h
- half-life ([3]; 300 mg, Day 10, LED-E 300 mg q8h): 6.75 h
- half-life ([3]; 500 mg, Day 10, LED-E 500 mg q8h): 9.14 h
- CL renal ([4]; single dose LED-E 300 mg): 0.22 mL/min
- CL renal ([4]; single dose LED-E 500 mg): 0.275 mL/min
- CL renal ([4]; single dose LED-E 800 mg): 0.292 mL/min
- CL renal ([4]; single dose LED-E 1000 mg): 0.393 mL/min
- Ae0–8 ([4]; single dose LED-E 300 mg): 0.00779 (51.0) mg
- Ae0–8 ([4]; single dose LED-E 500 mg): 0.0212 (38.4) mg
- Ae0–48 ([4]; single dose LED-E 500 mg): 0.0212 (38.4) mg
- Ae0–8 ([4]; single dose LED-E 800 mg): 0.0301 (49.2) mg
- Ae0–48 ([4]; single dose LED-E 800 mg): 0.0301 (49.2) mg
- Ae0–8 ([4]; single dose LED-E 1000 mg): 0.0542 (68.6) mg
- Ae0–48 ([4]; single dose LED-E 1000 mg): 0.0542 (68.6) mg
- CL renal ([5]; multiple doses LED-E 150 mg q8h): 0.247 mL/min
- CL renal ([5]; multiple doses LED-E 300 mg q8h): 0.121 mL/min
- CL renal ([5]; multiple doses LED-E 500 mg q8h): 0.433 mL/min
- Ae0–48 ([5]; multiple doses LED-E 75 mg q8h, after last dose (Day 10)): below the limit of quantification
- Ae0–48 ([5]; multiple doses LED-E 150 mg q8h, after last dose (Day 10)): 0.00488 (47.9) mg
- Ae0–48 ([5]; multiple doses LED-E 300 mg q8h, after last dose (Day 10)): 0.00378 (218) mg
- Ae0–8 [5, 14]: 0.0273 (38.5) mg
- Ae0–48 [5, 14]: 0.0273 (38.5) mg
- Ae0–48 ([5]; multiple doses LED-E 500 mg q8h, after last dose (Day 10), listed as LED-E): 0.03 mg
- Ae0–8 [6, 15]: 0.0113 (41.4) mg
- Fe0–8 [6, 15]: 0.00377 (41.4) %
- Ae0–8 [6, 16]: 0.0271 (58.4)^d mg
- Fe0–8 [6, 16]: 0.00542 (58.4)^d %
- Fe0-8 recovered in urine, of the last dose ([6]; Day 10, across CTB 400 mg + LED-E 300 mg q8h and CTB 400 mg + LED-E 500 mg q8h): less than 0.01%
- CL renal [6, 15]: 0.402 mL/min
- CL renal [6, 16]: 0.42 mL/min
- Change in geometric mean AUCtau from the first to the last dose ([7]; Day 10, CTB 400 mg + LED-E 300 or 500 mg q8h, both dose groups): unchanged
- AUC [7, 17]: 463 ng·h/mL
- AUC [7, 18]: 1090 ng·h/mL
- Cmax [7, 17]: 467 ng/mL
- Cmax [7, 18]: 1180 ng/mL
- Tmax ([7]; human, oral, Tmax, Day 10, CTB 400 mg + LED-E 300 mg q8h, median (range)): 0.5 h
- half-life ([7]; human, oral, t1/2, Day 10, CTB 400 mg + LED-E 300 mg q8h): 7.68 h
- half-life ([7]; human, oral, t1/2, Day 10, CTB 400 mg + LED-E 500 mg q8h): 10.7 h
